Laboratory results as given in BindingDB's records for patent US20230339915 (Vertex Pharmaceuticals, 2023).
pIC50: −log10 of the molar value.

Target: T1, Alpha-1-antitrypsin [E366K] (Homo sapiens, UniProt P01009, E366K)
T1 construct: gene SERPINA1
Test: Biochemical Assay (Z-AAT Elastase Activity Assay)
Method: Assay Protocol: Pre-Incubation of Z-AAT with Compounds1. 7.5 μL of Z-AAT (20 nM) was incubated with compounds 1-227 in a GCA plate for 1 hour at room temperature. Addition of hNE1. 7.5 ul of HNE solution (3 nM in PBS+0.01% BRIJ35) added into GCA plate2. Incubate plate for 30 minutes to allow Z-AAT/HNE suicide complex formation. Addition of Substrate and Read Plate on PE Envision1. 7.5 μL of substrate (300 μM solution of elastase substrate (ES V) in PBS+0.01% BRIJ35) dispensed per well into GCA plate2. Immediately read on Envision.

T1 sequence (P01009 25-418 E366K limits assumed): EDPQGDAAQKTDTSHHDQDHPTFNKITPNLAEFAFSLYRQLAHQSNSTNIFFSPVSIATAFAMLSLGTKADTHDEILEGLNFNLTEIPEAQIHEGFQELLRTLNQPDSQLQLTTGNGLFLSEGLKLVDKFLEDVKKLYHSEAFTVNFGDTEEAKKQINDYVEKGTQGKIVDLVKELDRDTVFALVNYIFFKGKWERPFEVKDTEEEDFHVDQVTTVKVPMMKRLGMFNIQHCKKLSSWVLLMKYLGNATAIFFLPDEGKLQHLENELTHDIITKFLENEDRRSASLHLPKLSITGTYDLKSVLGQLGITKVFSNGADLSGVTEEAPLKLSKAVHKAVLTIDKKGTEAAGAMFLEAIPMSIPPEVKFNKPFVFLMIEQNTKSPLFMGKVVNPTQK

In the case of `Cc1cc(-n2c(C(C)C)c([C@H]3C[C@@H]3C(=O)O)c3cc(O)c(F)cc32)ccc1F` [US20230339915, Compound 129], the pIC50 was < 5.30.

`Cc1cc(-n2c(C(C)C)c(C3CC3(C)C(=O)O)c3cc(O)ccc32)ccc1F` (centres undefined) [US20230339915, Compound 130] was tested, and the pIC50 was < 5.30.

`Cc1cc(-n2c(C(C)C)c(-c3ccc(C(=O)O)cc3)c3cc(O)ccc32)ccc1F` [US20230339915, Compound 167] was tested, and the pIC50 was > 5.70.

For `Cc1cc(-n2c(C(C)C)c(-c3ccc(C(=O)O)cc3C)c3cc(O)ccc32)ccc1F` [US20230339915, Compound 170], the pIC50 was > 5.70.
